Measurements as given in ChEMBL document CHEMBL1127379, “Three-dimensional molecular shape analysis-quantitative structure-activity relationship of a series of cholecystokinin-A receptor antagonists” (J Med Chem, 1994).

Molecular target: T1, Cholecystokinin receptor type A (Rattus norvegicus, UniProt P30551)
T1 sequence (P30551 whole entry): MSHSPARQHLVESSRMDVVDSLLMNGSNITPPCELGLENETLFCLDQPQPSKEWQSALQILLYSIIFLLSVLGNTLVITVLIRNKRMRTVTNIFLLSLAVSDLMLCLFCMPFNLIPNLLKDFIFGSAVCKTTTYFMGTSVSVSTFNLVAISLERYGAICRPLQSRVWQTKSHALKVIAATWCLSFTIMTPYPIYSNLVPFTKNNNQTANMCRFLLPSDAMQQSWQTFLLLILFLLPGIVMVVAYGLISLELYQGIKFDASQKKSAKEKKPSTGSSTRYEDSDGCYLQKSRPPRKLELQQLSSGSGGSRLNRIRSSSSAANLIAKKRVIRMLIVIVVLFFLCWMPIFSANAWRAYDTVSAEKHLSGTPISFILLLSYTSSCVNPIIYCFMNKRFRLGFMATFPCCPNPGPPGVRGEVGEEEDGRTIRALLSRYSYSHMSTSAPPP
Test: Binding affinity against cholecystokinin type A receptor of rat pancreas

Q: With `CN1C(=O)[C@@H](NC(=O)c2ccc(Cl)cc2)N=C(c2ccccc2F)c2ccccc21` as the molecule, how does the IC50 read?
A: The IC50 was 2.88 nM.

Q: Which IC50 does the source give for `CN1C(=O)[C@@H](NC(=O)c2ccc(Br)cc2)N=C(c2ccccc2)c2ccccc21` here?
A: Its IC50 is 2.51 nM.

Q: `O=C(NC1N=C(c2ccccc2)c2ccccc2NC1=O)c1cc2ccccc2[nH]1` (stereo not drawn) was tested. Which IC50 did it give?
A: The IC50 was 4.57 nM.

Q: How did the IC50 turn out when `O=C(NC1N=C(c2ccccc2F)c2ccccc2NC1=O)c1cc2cc(Cl)ccc2[nH]1` (stereo not drawn) was run?
A: Its IC50 is 100 nM.

Q: For `O=C(NC1N=C(c2ccccc2)c2ccccc2NC1=O)c1ccc(O)cc1` (stereo not drawn), which IC50 is on record?
A: Its IC50 is 1780 nM.

Q: With `CN1C(=O)C(NC(=O)c2ccc(C#N)cc2)N=C(c2ccccc2F)c2ccccc21` (stereo not drawn) as the molecule, how does the IC50 read?
A: The IC50 was 42.7 nM.

Q: `CC1C(C(=O)NC2N=C(c3ccccc3F)c3ccccc3NC2=O)=Cc2ccccc21` (stereo not drawn) was tested. Which IC50 did it give?
A: The IC50 was 21.9 nM.

Q: How did the IC50 turn out when `O=C(CNc1ccccc1)NC1N=C(c2ccccc2F)c2ccccc2NC1=O` (stereo not drawn) was run?
A: The IC50 was 89.1 nM.

Q: How did the IC50 turn out when `CN1C(=O)C(NC(=O)c2ccccc2I)N=C(c2ccccc2F)c2ccccc21` (stereo not drawn) was run?
A: The IC50 was 794 nM.

Q: For `CN1C(=O)C(NC(=O)c2ccc(Br)cc2)N=C(c2ccccc2F)c2ccccc21` (stereo not drawn), which IC50 is on record?
A: Its IC50 is 0.794 nM.

Q: `CN1C(=O)C(NC(=O)c2ccc(I)cc2)N=C(c2ccccc2F)c2ccccc21` (stereo not drawn) was tested. Which IC50 did it give?
A: The IC50 was 0.794 nM.

Q: With `CN1C(=O)C(NC(=O)c2ccc(C(F)(F)F)cc2)N=C(c2ccccc2)c2ccccc21` (stereo not drawn) as the molecule, how does the IC50 read?
A: Its IC50 is 1.29 nM.

Q: For `CN1C(=O)C(NC(=O)c2cccc(Br)c2)N=C(c2ccccc2F)c2ccccc21` (stereo not drawn), which IC50 is on record?
A: The IC50 was 3.47 nM.
